Source: US10301260B2, “Pyrrolidine GPR40 modulators” (BRISTOL-MYERS SQUIBB COMPANY, priority 2014, dated 2019)
Where a name gives a salt, the structure may show the parent alone.

target: T1, hGPR40 (Homo sapiens, UniProt O14842); assay: FDSS-based intracellular calcium assay (Human GRP40 In Vitro assay); type: cell-based; details: cells expressing GPR40, intracellular Ca2+ response
T1 construct: 3xFLAG; expressed in transfected cells
Description: FDSS-Based Intracellular Calcium Assay
Cell lines expressing GPR40 are generated using the pDEST-3xFLAG gene expression system and are cultured in culture medium comprising the following components: F12 (Gibco #11765), 10% lipid deprived fetal bovine serum, 250 μg/ml zeocin and 500 μg/ml G418. To conduct the fluorescent imaging plate reader (FLIPR)-based calcium flux assay to measure intracellular Ca^2+ response, cells expressing GPR40 are plated on 384 well plates (BD Biocoat #356697) at a density of 20,000 cells/20 μL medium per well in phenol red and serum-free DMEM (Gibco #21063-029) and incubated overnight. Using BD kit #s 80500-310 or -301, the cells are incubated with 20 μL per well of Hank's buffered salt solution with 1.7 mM probenecid and Fluo-3 at 37° C. for 30 min. Compounds are dissolved in DMSO and diluted to desired concentrations with assay buffer and added to the cells as 3× solution (20 μL per well). Run fluorescence/luminescence reader FDSS (Hamamatsu) to read intracellular Ca^2+ response.
The exemplified Examples disclosed below were tested in the Human GRP40 In Vitro assay described above and found having hGRP40 modulating activity.

T1 sequence (O14842 whole entry): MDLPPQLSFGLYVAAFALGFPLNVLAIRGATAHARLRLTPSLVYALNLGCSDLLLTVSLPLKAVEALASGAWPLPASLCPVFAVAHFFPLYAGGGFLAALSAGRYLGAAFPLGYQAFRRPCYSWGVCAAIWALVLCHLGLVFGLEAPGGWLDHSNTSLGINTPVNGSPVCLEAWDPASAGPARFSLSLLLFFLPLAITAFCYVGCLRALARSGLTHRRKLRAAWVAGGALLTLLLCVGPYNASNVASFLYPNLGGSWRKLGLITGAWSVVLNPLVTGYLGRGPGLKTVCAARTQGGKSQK

Point of comparison: `COc1ccc(F)c(-c2ccc(Cc3ccc(N4C[C@H](N5CCCCC5)C[C@@H]4CC(=O)O)cc3)c(C)c2)c1` (single isomer, unassigned) [Example 13, Isomer 2], EC50 2800 nM. Against it:
- COc1ccc(F)c(-c2ccc(Cc3ccc(N4C[C@@H](N5CCCCC5)C[C@@H]4CC(=O)O)cc3)c(C)c2)c1 (single isomer, unassigned) [Example 13, Isomer 1] — 2.4-fold higher, 6700 nM
- COc1ccc(F)c(-c2ccc(COc3ccc(N4C[C@H](c5ccccc5)C[C@@H]4CC(=O)O)cc3)c(C)c2)c1 [Example 16, 2-((2R,4S)-1-(4-((2′-Fluoro-5′-methoxy-3-methyl-[1,1′-biphenyl]-4-yl)methoxy)phenyl)-4-phenylpyrrolidin-2-yl)acetic Acid, HCl] — 2.8-fold lower, 1000 nM
- COc1ccc(F)c(-c2ccc(Cc3ccc(N4CC(c5cc(C)no5)CC4CC(=O)O)cc3)c(C)c2)c1 (single isomer, unassigned) [Example 9, Isomer 3, 2-(1-(4-((2′-Fluoro-5′-methoxy-3-methyl-[1,1′-biphenyl]-4-yl)methyl)phenyl)-4-(3-methylisoxazol-5-yl)pyrrolidin-2-yl)acetic Acid, HCl] — 2-fold lower, 1400 nM
- COc1ccc(F)c(-c2ccc(Cc3ccc(N4CC(c5cc(C)no5)CC4CC(=O)O)cc3)c(C)c2)c1 (single isomer, unassigned) [Example 9, Isomer 4, 2-(1-(4-((2′-Fluoro-5′-methoxy-3-methyl-[1,1′-biphenyl]-4-yl)methyl)phenyl)-4-(3-methylisoxazol-5-yl)pyrrolidin-2-yl)acetic Acid, HCl] — within 1.5-fold, 3500 nM
- COc1ccc(F)c(-c2ccc(Cc3ccc(N4C[C@@H](c5ccccc5OC)C[C@@H]4CC(=O)O)cc3)c(C)c2)c1 (single isomer, unassigned) [Example 15, Isomer 2, HCl] — 46-fold lower, 61 nM
- COc1ccc(F)c(-c2ccc(Cc3ccc(N4CC(c5cc(C)no5)CC4CC(=O)O)cc3)c(C)c2)c1 (single isomer, unassigned) [Example 9, Isomer 2, 2-(1-(4-((2′-Fluoro-5′-methoxy-3-methyl-[1,1′-biphenyl]-4-yl)methyl)phenyl)-4-(3-methylisoxazol-5-yl)pyrrolidin-2-yl)acetic Acid, HCl] — within 1.5-fold, 2200 nM
- COc1ccc(F)c(-c2ccc(Cc3ccc(N4C[C@@H](c5ccccc5)C[C@@H]4CC(=O)O)cc3)c(C)c2)c1 [Example 5, 2-((2R,4R)-1-(4-((2′-Fluoro-5′-methoxy-3-methyl-[1,1′-biphenyl]-4-yl)methyl)phenyl)-4-phenylpyrrolidin-2-yl)acetic Acid] — 22-fold lower, 130 nM
- COc1ccc(F)c(-c2ccc(Cc3ccc(N4CC(c5ccon5)CC4CC(=O)O)cc3)c(C)c2)c1 (single isomer, unassigned) [Example 11, Isomer 2, 2-(1-(4-((2′-Fluoro-5′-methoxy-3-methyl-[1,1′-biphenyl]-4-yl)methyl)phenyl)-4-(isoxazol-3-yl)pyrrolidin-2-yl)acetic Acid, HCl] — 5.1-fold lower, 550 nM
- COc1ccc(F)c(-c2ccc(Cc3ccc(N4C[C@@H](c5ccccn5)C[C@@H]4CC(=O)O)cc3)c(C)c2)c1 [Example 10, 2-((2R,4S)-1-(4-((2′-Fluoro-5′-methoxy-3-methyl-[1,1′-biphenyl]-4-yl)methyl)phenyl)-4-(pyridin-2-yl)pyrrolidin-2-yl)acetic Acid, HCl] — 2-fold lower, 1400 nM
- COc1ccc(F)c(-c2ccc(Cc3ccc(N4C[C@H](c5ccccc5OC)C[C@@H]4CC(=O)O)cc3)c(C)c2)c1 (single isomer, unassigned) [Example 15, Isomer 1, HCl] — 72-fold lower, 39 nM
- COc1ccc(F)c(-c2ccc(Cc3ccc(N4CC(c5cc(C)no5)CC4CC(=O)O)cc3)c(C)c2)c1 (single isomer, unassigned) [Example 9, Isomer 1, 2-(1-(4-((2′-Fluoro-5′-methoxy-3-methyl-[1,1′-biphenyl]-4-yl)methyl)phenyl)-4-(3-methylisoxazol-5-yl)pyrrolidin-2-yl)acetic Acid, HCl] — 19-fold lower, 150 nM
- COc1ccc(F)c(-c2ccc(Cc3ccc(N4C[C@H](c5ccccc5)C[C@@H]4CC(=O)O)cc3)c(C)c2)c1 [Example 1, 2-((2R,4S)-1-(4-((2′-Fluoro-5′-methoxy-3-methylbiphenyl-4-yl)methyl)phenyl)-4-phenylpyrrolidin-2-yl)acetic Acid, HCl] — 190-fold lower, 15 nM
- COCCO[C@@H]1C[C@H](CC(=O)O)N(c2ccc(Cc3ccc(-c4cc(OC)ccc4F)cc3C)cc2)C1 [Example 7, 2-((2R,4R)-1-(4-((2′-Fluoro-5′-methoxy-3-methyl-[1,1′-biphenyl]-4-yl)methyl)phenyl)-4-(2-methoxyethoxy)pyrrolidin-2-yl)acetic Acid, HCl] — 12-fold lower, 240 nM
- COc1ccc(F)c(-c2ccc(Cc3ccc(N4CC(C#N)CC4CC(=O)O)cc3)c(C)c2)c1 (centres unmarked) [Example 2, 2-(4-Cyano-1-(4-((2′-fluoro-5′-methoxy-3-methylbiphenyl-4-yl)methyl)phenyl)pyrrolidin-2-yl)acetic Acid, TFA] — 10-fold lower, 270 nM
- COc1ccc(F)c(-c2ccc(Cc3ccc(N4CC(c5ccon5)CC4CC(=O)O)cc3)c(C)c2)c1 (single isomer, unassigned) [Example 11, Isomer 1, 2-(1-(4-((2′-Fluoro-5′-methoxy-3-methyl-[1,1′-biphenyl]-4-yl)methyl)phenyl)-4-(isoxazol-3-yl)pyrrolidin-2-yl)acetic Acid, HCl] — 2.9-fold higher, 8100 nM
- COc1ccc(F)c(-c2ccc(Cc3ccc(N4C[C@](OC)(c5ccc(-c6ccccc6)cc5)C[C@@H]4CC(=O)O)cc3)c(C)c2)c1 [Example 6, 2-((2R,4R)-4-([1,1′-Biphenyl]-4-yl)-1-(4-((2′-fluoro-5′-methoxy-3-methyl-[1,1′-biphenyl]-4-yl)methyl)phenyl)-4-methoxypyrrolidin-2-yl)acetic Acid, HCl] — 36-fold lower, 77 nM
- COc1ccc(F)c(-c2ccc(Cc3ccc(N4C[C@H](c5cccnc5)C[C@@H]4CC(=O)O)cc3)c(C)c2)c1 [Example 8, 2-((2R,4S)-1-(4-((2′-Fluoro-5′-methoxy-3-methyl-[1,1′-biphenyl]-4-yl)methyl)phenyl)-4-(pyridin-3-yl)pyrrolidin-2-yl)acetic Acid, HCl] — 30-fold lower, 94 nM
- COCCCO[C@H]1CN(c2ccc(Cc3ccc(-c4cc(OC)ccc4F)cc3C)cc2)[C@@H](CC(=O)O)[C@@H]1C [Example 17, 2-((2S,3S,4R)-1-(4-((2′-Fluoro-5′-methoxy-3-methyl-[1,1′-biphenyl]-4-yl)methyl)phenyl)-4-(3-methoxypropoxy)-3-methylpyrrolidin-2-yl)acetic Acid, HCl] — 72-fold lower, 39 nM
- COc1ccc(F)c(-c2ccc(Cc3ccc(N4CC(c5cccc(Cl)c5)C[C@@H]4CC(=O)O)cc3)c(C)c2)c1 (single isomer, unassigned) [Example 12, Isomer 2, HCl] — 280-fold lower, 10 nM
- COc1ccc(F)c(-c2ccc(Cc3ccc(N4C[C@H](C5CCCCC5)C[C@@H]4CC(=O)O)cc3)c(C)c2)c1 [Example 3, 2-((2R,4S)-4-Cyclohexyl-1-(4-((2′-fluoro-5′-methoxy-3-methyl-[1,1′-biphenyl]-4-yl)methyl)phenyl)pyrrolidin-2-yl)acetic Acid, HCl] — 220-fold lower, 13 nM
- COc1ccc(F)c(-c2ccc(Cc3ccc(N4C[C@H](c5ccc(-c6ccccc6)cc5)C[C@@H]4CC(=O)O)cc3)c(C)c2)c1 [Example 4, 2-((2R,4S)-4-([1,1′-Biphenyl]-4-yl)-1-(4-((2′-fluoro-5′-methoxy-3-methyl-[1,1′-biphenyl]-4-yl)methyl)phenyl)pyrrolidin-2-yl)acetic Acid, HCl] — 13-fold lower, 210 nM
- COc1ccc(F)c(-c2ccc(Cc3ccc(N4CC(c5cccc(Cl)c5)C[C@@H]4CC(=O)O)cc3)c(C)c2)c1 (single isomer, unassigned) [Example 12, Isomer 1, HCl] — 18-fold lower, 160 nM
